What is called GI50 is the concentration that inhibits growth by half. What is called TGI is the concentration giving total growth inhibition. A lower TGI goes with more potent growth arrest.

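How tested: cells in 96-well plates exposed to compound for 48 hours at five concentrations. At the GI50, growth is halved. TGI marks complete inhibition of growth.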

Consider 17 compounds from PubChem BioAssay (NCI).

Common to all, as to assay: DTP human tumour cell line panel, 48 h
In assay [1] the test system is CAKI-1 renal.
Assay [2] has as its system HCC-2998 colon.
For assay [3], the system named is HOP-62 NSCLC.
In assay [4] the test system is HT29 colon.
Assay [5] deals with OVCAR-3 ovarian.
The test system of assay [6] is SF-539 CNS.
In assay [7] the test system is SK-MEL-5 melanoma.
Assay [8] deals with SK-OV-3 ovarian.
For assay [9], the system named is SNB-75 CNS.
Assay [10] has as its system U251 CNS.

As to `Nc1ccc(Sc2ccc3c4c2cccc4c(=O)n2c4ccccc4nc32)cc1`, the GI50 in assay [1] is 1820 nM; in [2] it was 10.1 µM; in assay [3], 4.34 µM; in assay [4] it was 8.55 µM; in assay [5] it was 6400 nM; in assay [6] it was 3110 nM. The GI50 in [7] was 2920 nM; in assay [8], 5.63 µM; in [9], 3350 nM; in [10] it was 4.13 µM. The TGI in assay [1] is 8.48 µM; in assay [2] it was over 100 µM; in assay [3] it was 17.2 µM; in assay [4], 73.2 µM; in assay [5], 24.4 µM; in assay [6], 15.6 µM. For the same compound, the total growth inhibition concentration (TGI) in [7] amounted to 13.9 µM; in assay [8], 37.2 µM; in assay [9], 48.1 µM; in assay [10] it was 20.6 µM.

For `O=C(Nc1ccc(Oc2cccc(Cl)c2)c(Cl)c1)c1cccnc1`, the GI50 is 2630 nM in assay [1]; 5.62 µM in [2]; 1.8 µM in [3]; 0.823 µM in assay [4]; 1220 nM in assay [5]; 1490 nM in [6]. In addition, the GI50 in [7] was 1780 nM; in assay [8] it was 2.12 µM; in assay [9], 1210 nM; in assay [10] it was 2.23 µM. Also, the TGI in [1] stood at 36.6 µM; in assay [2], 15.7 µM; in assay [3], 25.1 µM; in [4], 6.42 µM; in [5], 4.28 µM; in assay [6], 7.54 µM. In addition, the TGI in assay [7] was 6.92 µM; in assay [8], over 50 µM; in assay [9], 4.81 µM; in assay [10], 18 µM.

For the compound `Fc1ccc(-c2ncn(C3CCNCC3)c2-c2ccnc(Oc3ccc(Oc4ccccc4)cc3)n2)cc1`, the GI50 in assay [1] is 3920 nM; in assay [2], 3.15 µM; in assay [3] it was 4.05 µM; in assay [4], 2.13 µM; in assay [5], 4360 nM; in assay [6], 4200 nM. Moreover, the GI50 in assay [7] was 3550 nM; in [8], 4.41 µM; in [9] it was 3400 nM; in assay [10], 3.56 µM. The TGI turned out to be 7.74 µM in assay [1]; 6.69 µM in assay [2]; 7.64 µM in assay [3]; 5.23 µM in [4]; 7.94 µM in assay [5]; 7.92 µM in [6]. In addition, the TGI in assay [7] amounted to 6.82 µM; in [8] it was 7.9 µM; in assay [9], 6.67 µM; in assay [10] it was 7.18 µM.

As to `C/C(=C\COc1ccc2ccc(=O)oc2c1)CCC(=O)C(C)(C)O`, the TGI was over 100 µM in [1]; 38.4 µM in [2]; over 100 µM in assay [3]; 52.7 µM in assay [4]; 46.4 µM in assay [5]; 48.5 µM in assay [6]. The TGI was 30.2 µM in assay [7], 99.4 µM in [8], over 100 µM in assay [9] and 47.4 µM in assay [10].

For the compound `CCCCOc1nc2ccccc2cc1C1CNC(=O)c2ccccc2N1` (stereo not drawn), the GI50 in [1] was 3110 nM; in assay [2], 3.68 µM; in assay [3], 3.08 µM; in [4] it was 3.3 µM; in [5] it was 1560 nM; in assay [6] it was 2300 nM. Further, the GI50 was 2790 nM in [7], 2.94 µM in [8], 1750 nM in assay [9] and 3.35 µM in [10]. The TGI worked out at 23.6 µM in [1]; 21.5 µM in assay [2]; 17.7 µM in [3]; 10.6 µM in assay [4]; 3.86 µM in assay [5]; 6.86 µM in assay [6]. Also, the TGI in assay [7] was 18.4 µM; in assay [8] it was 13.3 µM; in [9], 12.2 µM; in assay [10], 14.2 µM.

`CC(C)N(C(=O)C12C3C4C5C3C1(C(=O)N(C(C)C)C(C)C)C5C42)C(C)C` (stereo not drawn): the TGI in [1], in assay [2], in assay [3], in assay [4], in assay [5] and in [6] was over 100 µM in each case. Besides, the TGI in assay [7], in assay [8], in assay [9] and in [10] was over 100 µM each time.

Regarding `O=C1c2ccccc2-c2c1c1ccccc1c(=O)n2CCCNCCO`, the GI50 in assay [1] was 438 nM; in assay [2] it was 1.28 µM; in [3] it was 0.317 µM; in assay [4] it was 0.33 µM; in assay [5], 1070 nM; in [6] it was 578 nM. Besides, the GI50 in [7] was 198 nM; in assay [8], 2.1 µM; in assay [9], 1430 nM; in [10], 0.302 µM. The TGI in assay [1] worked out at 3.34 µM; in [2], 5.74 µM; in assay [3] it was 2.61 µM; in assay [4] it was 6.68 µM; in assay [5] it was 6.13 µM; in assay [6], 2.96 µM. The total growth inhibition concentration (TGI) was determined as 0.877 µM in [7], 14.4 µM in [8], 5.68 µM in [9] and 5.61 µM in assay [10].

For `Cn1c(-c2cccs2)cc(-c2ccsc2)c1-c1ccsc1`, the TGI in assay [1], in assay [2], in [3], in assay [4], in assay [5] and in [6] was over 100 µM throughout. Further, the TGI in assay [7], in assay [8], in assay [9] and in [10] was over 100 µM throughout.

Turning to `COC(=O)[C@@H](C)C[C@H](Cc1ccccc1)NC(=O)c1csc([C@@H](C[C@H](C(C)C)N(C)C(=O)[C@@H](NC(=O)CN(C)C)C2CC2)OC(C)=O)n1`, the GI50 in assay [1] is 1300 nM; in assay [2], 0.0573 µM; in assay [3], 0.0585 µM; in [4] it was 0.013 µM; in assay [5], 3.09 nM; in [6], 22 nM. Moreover, the GI50 is 12.2 nM in assay [7], 0.434 µM in assay [8], 6.96 nM in [9] and 0.055 µM in assay [10]. Further, the TGI is over 16.5 µM in assay [1]; over 16.5 µM in [2]; over 16.5 µM in assay [3]; 0.0925 µM in assay [6]; 0.434 µM in assay [7]; over 16.5 µM in assay [8]. In addition, the TGI in assay [9] and in [10] was over 16.5 µM in each case.

Take `O=C(N/N=C\c1cc(Br)cc(Br)c1O)N/N=C/c1cc(Br)cc(Br)c1O`: the GI50 is 3290 nM in assay [1]; 13.4 µM in assay [2]; 8.99 µM in assay [3]; 5.93 µM in assay [4]; 4030 nM in assay [5]; 1730 nM in assay [6]. In addition, the GI50 was 1830 nM in assay [7], 5.21 µM in [8], 1110 nM in [9] and 2.14 µM in [10]. The TGI in [1] was found to be 15.9 µM; in [2], 32.5 µM; in [3], 22.8 µM; in assay [4], 18.3 µM; in assay [5], 16.3 µM; in assay [6], 11 µM. The TGI in assay [7] was 4.69 µM; in assay [8] it was 16.6 µM; in assay [9] it was 15.6 µM; in assay [10], 15.7 µM.

Take `CCOC(=O)Nc1ccc2nc(Sc3ccc(Cl)cc3)sc2c1`: the GI50 in assay [1] was 1950 nM; in [2] it was 15.3 µM; in [3], 9.43 µM; in assay [4] it was 0.518 µM; in assay [5], 1890 nM; in assay [6], 2920 nM. In addition, the GI50 is 1180 nM in [7], 4.8 µM in assay [8], 2960 nM in [9] and 3.15 µM in [10]. Besides, the TGI in assay [1] is 42 µM; in assay [2], over 71.4 µM; in assay [3], over 100 µM; in assay [4], 13.3 µM; in assay [5], over 32.6 µM; in assay [6] it was 22.1 µM. The TGI is 5.07 µM in [7], over 95 µM in assay [8], 33.9 µM in assay [9] and 44.6 µM in [10].

On to `N#CSc1cc(-c2nc3ccccc3o2)ccc1N`, for which the GI50 in assay [1] was 25500 nM; in assay [2], 22.6 µM; in [3], 52.7 µM; in [4] it was 37.7 µM; in [5] it was 17900 nM; in [6], 22400 nM. Moreover, the GI50 in [7] is 11100 nM; in assay [8], 76.5 µM; in assay [9], 1830 nM; in [10], 11.8 µM. For the same compound, the concentration for total growth inhibition (TGI) in assay [1] was 61.9 µM; in assay [2], over 100 µM; in assay [3], over 100 µM; in [4] it was over 100 µM; in [5], over 56.7 µM; in [6] it was 45.3 µM. Besides, the TGI in assay [7] was 29.2 µM; in assay [8] it was over 100 µM; in assay [9] it was over 20.7 µM; in [10], 57.3 µM.

Turning to `O=C(/C=C/c1ccc(OCCCOc2ccc(/C=C/C(=O)c3ccc(Cl)cc3)cc2)cc1)c1ccc(Cl)cc1`, the TGI in [1], in assay [2], in [3], in [4], in assay [5] and in assay [6] was over 100 µM in each case. Also, the TGI in [7], in assay [8], in [9] and in assay [10] was over 100 µM in each case.

Consider `O=C1NC(=Nc2ccccc2Cl)SC1C(=O)Nc1ccc([N+](=O)[O-])cc1[N+](=O)[O-]` (stereo not drawn), for which the TGI in assay [1], in assay [2], in assay [3], in assay [4], in [5] and in [6] was over 100 µM in each case. The total growth inhibition concentration (TGI) in assay [7], in assay [8], in assay [9] and in [10] was over 100 µM throughout.

Turning to `COc1ccc(OC)c(/C=C/C(=O)c2ccc(SC)cc2)c1`, the GI50 in assay [1] was 2390 nM; in assay [2], 4.81 µM; in [3], 18.4 µM; in assay [4] it was 3.89 µM; in [5], 89.7 nM; in assay [6], 2550 nM. Also, the GI50 in assay [7] is 3310 nM; in assay [8], 8.07 µM; in assay [9] it was 8880 nM; in [10], 12.7 µM. Also, the TGI in assay [1] was 18.5 µM; in assay [2], 17.1 µM; in assay [3] it was 52.3 µM; in [4], over 100 µM; in assay [5], 2.7 µM; in assay [6] it was 6.99 µM. Also, the TGI is 14 µM in assay [7], over 100 µM in assay [8], over 100 µM in assay [9] and 26.9 µM in [10].

For the compound `CCN(Cc1cccc(C)c1)c1ccc(CO)c(Cl)c1`, the GI50 in assay [1] was 1310 nM; in [2], 12.1 µM; in [3], 2.55 µM; in assay [4], 4.12 µM; in assay [5] it was 1500 nM; in assay [6], 17300 nM. Also, the GI50 in [7] was 9250 nM; in [8] it was 11.7 µM; in [9] it was 13100 nM; in [10], 2.27 µM. In addition, the TGI was 14.7 µM in assay [1]; 25.4 µM in assay [2]; 22 µM in [3]; 16.2 µM in assay [4]; 8.77 µM in assay [5]; 32.4 µM in assay [6]. For the same compound, the TGI in [7] worked out at 22 µM; in assay [8] it was 29.5 µM; in [9], 37.5 µM; in assay [10], 16.8 µM.

Take `Cn1cc(C2=C(c3cccc(Cl)c3)C(=O)NC2=O)c2ccccc21`: the GI50 in [1] was over 17000 nM; in [2] it was 9.59 µM; in assay [3], over 25 µM; in assay [4], 10.3 µM; in [5] it was over 25000 nM; in [6], over 25000 nM. Further, the GI50 in assay [7] is 10700 nM; in [8], over 25 µM; in assay [9], 6650 nM; in [10], 16.5 µM. The TGI in assay [1], in assay [2], in assay [3], in [4], in assay [5] and in assay [6] was over 25 µM in each case. Further, the TGI in assay [7], in [8], in assay [9] and in assay [10] was over 25 µM throughout.
